This passage reports reduction in seizures results from patent US20080188461A1, “Compositions and methods for detecting, preventing and treating seizures and seizure related disorders” (Regents of the University of Michigan, priority 2007, published 2008).

This assay relates to seizures. Put plainly: Reduction in the number of seizures in individuals with multiple daily seizures treated with rapamycin. It counts as in vivo, human. Particulars: up to 7 mg/day rapamycin in combination with an anti-epileptic drug regimen, treatment 31-32 months. The protocol: In particular, 14 individuals experiencing multiple daily seizures (4 males with diagnosed TSC, 5 females with diagnosed TSC, 1 person with diagnosed Lennox-Gastaut Syndrome, and 4 females with diagnosed Lennox-Gastaut Syndrome) between the ages of 3-18 were administered rapamycin in combination with an anti-epileptic drug regimen. […] Each individual received between up to 7 mg/day of rapamycin. […] The duration of treatment was between 31 and 32 months.

As for `CO[C@H]1C[C@@H]2CC[C@@H](C)[C@@](O)(O2)C(=O)C(=O)N2CCCC[C@H]2C(=O)O[C@H]([C@H](C)C[C@@H]2CC[C@@H](O)[C@H](OC)C2)CC(=O)[C@H](C)/C=C(\C)[C@@H](O)[C@@H](OC)C(=O)[C@H](C)C[C@H](C)/C=C/C=C/C=C/1C` [rapamycin, Rapamycin], the reduction in seizures entry by setting is: (2 of the individuals diagnosed with TSC) “greater than 90%”; (3 of the individuals diagnosed with Lennox-Gastaut Syndrome) “greater than 90%”; (5 of the individuals diagnosed with Lennox-Gastaut Syndrome) “greater than 50%”; (5 of the individuals diagnosed with TSC) “greater than 50%”.
